Test results as given in patent US12427192B2, “Water soluble adjuvant and composition containing same” (Sumitomo Pharma Co., Ltd., priority 2019, dated 2025).

Legend:
[1] = system: HLA-A*02:01 transgenic mouse; experiment: Test 9: in vivo adjuvant activity, cocktail vaccine b, IFNγ ELISPOT; conditions: added to cocktail vaccine b; Peptide SEQ ID No. 1 or SEQ ID No. 4; 0.4 nmol per body, twice; FIG. 6 and 7
Procedure: (§1) Evaluation of In Vivo Adjuvant Activity in HLA-A*02:01 Transgenic Mouse
The in vivo adjuvant activity of the compounds prepared in Examples 8, 9, and 10 and the compound prepared in Reference example 12 was evaluated in the following procedure. To cocktail vaccine b comprising Compound of formula 4 prepared in Reference example 8 and Peptide SEQ ID No. 3 prepared in Reference example 3 with Montanide ISA51 VG was added the compound prepared in Example 8, 9, or 10, or the compound prepared in Reference example 12 to prepare each vaccine. The vaccine was administered to a HLA-A*02:01 transgenic mouse, and the adjuvant activity of each vaccine was evaluated by the method of testing antigen-specific CTL induction.
Specifically, Compound of formula 4 and Peptide SEQ ID No. 3 were dissolved in DMSO, and then diluted with water for injection to concentrations of Compound of formula 4 of 3 mg/mL and Peptide SEQ ID No. 3 of 2.25 mg/mL. The diluted peptide solution was mixed and emulsified with an equal volume of Montanide ISA 51 VG to prepare cocktail vaccine b. Cocktail vaccine b was injected to mice intradermally at the tail base area in an amount for administering 300 μg of Compound of formula 4 per body and 225 μg of Peptide SEQ ID No. 3 per body. Or, in the step of preparing cocktail vaccine b, the compound prepared in Example 8, 9, or 10, or the compound prepared in Reference example 12 was added to the diluted peptide solution to prepare a vaccine, and the prepared vaccine was injected to mice intradermally at the tail base area in an amount for administering 300 μg of Compound of formula 4 per body, 225 μg of Peptide SEQ ID No. 3 per body, and 0.4 nmol of the compound prepared in Example 8, 9, or 10, or the compound prepared in Reference example 12 per body. The administrations were done twice, which had one week interval. One week after the final administration, the mice were sacrificed with CO2 gas. Splenocytes were harvested from spleens removed from the mice. Like Test 4, Peptide (SEQ ID No. 1 or SEQ ID No. 4) was added to the splenocyte-containing ELISPOT plate at a final concentration of 10 μg/ml, and the plate was incubated overnight at 37° C. under an atmosphere of 5% CO2 to re-stimulate the peptide in vitro. Then, after removal of the supernatant from the wells, stained spots on the ELISPOT plate were counted.

[2] = system: HLA-A*24:02 transgenic mouse; experiment: Test 20: in vivo adjuvant activity, vaccine o (Compound of formula 5), IFNγ ELISPOT; conditions: added to vaccine o; 0.4 nmol per body, twice; FIG. 25
Procedure: Evaluation of In Vivo Adjuvant Activity in HLA-A*24:02 Transgenic Mouse
The in vivo adjuvant activity of the compound of Example 1 was evaluated in the following procedure. To a vaccine prepared by mixing Compound of formula 5 prepared in Reference example 22 with a preliminarily-emulsified composition (hereinafter, referred to as “vaccine o”) was added the compound prepared in Example 1 to prepare a vaccine. The vaccine was administered to a HLA-A*24:02 transgenic mouse, and the adjuvant activity of the vaccine was evaluated by the method of testing antigen-specific CTL induction.
Specifically, Compound of formula 5 was dissolved in DMSO, and then diluted with water for injection to concentrations of Compound of formula 5 of 3 mg/mL. The prepared compound dilution was mixed with an equal volume of the preliminary emulsified composition prepared like Test 4 to give an emulsified product, vaccine o. Vaccine o was injected to mice intradermally at the tail base area in an amount for administering 300 μg of Compound of formula 5 per body. […] Then, after removal of the supernatant from the wells, stained spots on the ELISPOT plate were counted.

[3] = system: HLA-A*02:01 transgenic mouse; experiment: Test 18: in vivo adjuvant activity, cocktail vaccine m (liposome formulation 3), IFNγ ELISPOT; conditions: added to cocktail vaccine m (liposome formulation 3); 0.4 nmol per body, twice; FIG. 22
Procedure: as §1
The in vivo adjuvant activity of the compound of Example 1 was evaluated in the following procedure. To a vaccine (liposome formulation 3) comprising Compound of formula 4 prepared in Reference example 8 and Peptide SEQ ID No. 3 prepared in Reference example 3 (hereinafter, referred to as “cocktail vaccine m”) was added the compound prepared in Example 1 to prepare a vaccine. The vaccine was administered to a HLA-A*02:01 transgenic mouse, and the adjuvant activity of the vaccine was evaluated by the method of testing antigen-specific CTL induction.
For example, the above liposome formulation 3 was prepared as follows. 36.7 mg of 1,2-dipalmitoyl-sn-glycero-3-phosphocholine, 7.58 mg of 1,2-dipalmitoyl-sn-glycero-3-phospho-L-serine sodium salt, and 15.47 mg of cholesterol were dissolved in t-butyl alcohol/water mixture, and the mixture was lyophilized. […]
Cocktail vaccine m was injected to mice intradermally at the tail base area in an amount for administering 500 μg of Compound of formula 4 per body and 375 μg of Peptide SEQ ID No. 3 per body. […] Then, after removal of the supernatant from the wells, stained spots on the ELISPOT plate were counted.

| SMILES | CTL counts responsive to the peptide compared with adding no compound [1] | CTL counts responsive to Peptide SEQ ID No. 2 compared with adding no compound [2] | CTL counts responsive to Peptide SEQ ID No. 1 compared with adding no compound [3] |
| --- | --- | --- | --- |
| CCCCCNc1nc(N)nc(C)c1Cc1ccc(CNC)cc1OC [Reference example 12, 5-({2-methoxy-4-[(methylamino)methyl]phenyl}methyl)-6-methyl-N^4-pentylpyrimidine-2,4-diamine, reference compound] | more |  |  |
| CCCCCNc1nc(N)nc(C)c1Cc1ccc(CN(C)CCOCCOCCOCCOCCO)cc1OC [Example 1, 1-(4-{[2-amino-4-methyl-6-(pentylamino)pyrimidin-5-yl]methyl}-3-methoxyphenyl)-2-methyl-5,8,11,14-tetraoxa-2-azahexadecan-16-ol·trifluoroacetate] |  | more | more |
